Laboratory results from BindingDB's records for doi:10.1021/jm970161m (Warner-Lambert, 1997).
pIC50: −log10 of the molar value. Square brackets hold non-standard residues; d marks the D form. Peptide text beside a SMILES is read from it. NMeDip = CN[C@H](C(=O)O)C(c1ccccc1)c1ccccc1; Dip = N[C@H](C(=O)O)C(c1ccccc1)c1ccccc1; NMeI = CC[C@H](C)[C@H](NC)C(=O)O

Biological target: Endothelin-1 receptor (Oryctolagus cuniculus)
Experiment: Inhibition of binding to Endothelin A receptor of rabbit renal vascular smooth muscle cells

pIC50	SMILES
6.15	CC[C@H](C)[C@H](NC(=O)[C@H]([C@@H](C)CC)N(C)C(=O)[C@H](CC(=O)O)NC(=O)[C@H](CC(C)C)NC(=O)[C@@H](NC(C)=O)C(c1ccccc1)c1ccccc1)C(=O)N[C@@H](Cc1c[nH]c2ccccc12)C(=O)O (Ac-[Dip]LD[NMeI]IW-OH)
5.35	CC[C@H](C)[C@H](NC(=O)[C@H](CC(=O)O)NC(=O)[C@H](CC(C)C)NC(=O)[C@H](C(c1ccccc1)c1ccccc1)N(C)C(C)=O)C(=O)N[C@H](C(=O)N[C@@H](Cc1c[nH]c2ccccc12)C(=O)O)[C@@H](C)CC (Ac-[NMeDip]LDIIW-OH)
